This is an account of results in patent US20230065158A1, “OXABICYCLOHEPTANES FOR TREATMENT OF SMALL CELL LUNG CANCER” (Lixte Biotechnology, Inc., priority 2021, published 2023).

The test system of one experiment is H446 spheroids. As to the kind of experiment: H446 spheroids with drugs and T cells, live imaging. It counts as cell-based. Conditions: without T cells, 48 h. On the procedure:
FIGS. 7A-7G depict results of T cells infiltration in H446 spheroids in the presence of LB100 and atezolizumab. FIG. 7A: Schematic of the effect of activated T cells on H446 spheroid degradation. At time point 0, single spheroids in 96 well plate were treated with LB-100, atezolizumab and T cells. Beads mimic in vivo T cell activation by two action signals CD3 and CD28. IncuCyte® Live-Cell Analysis System was used for the spheroidal imaging. Right panel presents spheroidal degeneration after 48 h incubation with LB-100, atezolizumab and activated T cells. FIGS. 7B and 7C: Automated image analysis provides metrics (0 h-μm, […]) and spheroid area (yellow-bright field mask). Column bars present mean values of spheroids at 0h. Representative images in bright field mask. […]
Cytotoxic CD8+ cells were isolated from whole blood, buffy coat of healthy donors following the protocol described in the Methods. […] Spheroid survival was monitored for 48 hours and their diameters were measured from phase contrast images. […]
H446 were generated as described in Materials and Methods (Monitoring of spheroid growth and cytotoxicity with the IncuCyte® Live-Cell Analysis System and IncuCyte® Cytotox reagent) following incubation with T cells and drugs. The effect of LB100 and atezolizumab in the presence of T cells was monitored with IncuCyte 3D Multi-Tumor Spheroid assay.

Another experiment deals with T1, PP2A (Homo sapiens, UniProt P67775).
T1 construct: endogenous in cells; host or cells: H524 (human SCLC) cells
T1 sequence (P67775 whole entry): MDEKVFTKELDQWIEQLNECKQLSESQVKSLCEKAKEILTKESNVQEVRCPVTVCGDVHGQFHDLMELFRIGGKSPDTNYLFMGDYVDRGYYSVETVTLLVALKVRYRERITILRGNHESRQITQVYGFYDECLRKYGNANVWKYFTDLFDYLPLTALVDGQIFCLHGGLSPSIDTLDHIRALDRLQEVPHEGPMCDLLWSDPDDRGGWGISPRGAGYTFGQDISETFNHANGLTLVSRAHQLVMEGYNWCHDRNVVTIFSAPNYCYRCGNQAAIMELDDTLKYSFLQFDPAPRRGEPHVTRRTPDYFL
T1 sequence (P30153 whole entry partner): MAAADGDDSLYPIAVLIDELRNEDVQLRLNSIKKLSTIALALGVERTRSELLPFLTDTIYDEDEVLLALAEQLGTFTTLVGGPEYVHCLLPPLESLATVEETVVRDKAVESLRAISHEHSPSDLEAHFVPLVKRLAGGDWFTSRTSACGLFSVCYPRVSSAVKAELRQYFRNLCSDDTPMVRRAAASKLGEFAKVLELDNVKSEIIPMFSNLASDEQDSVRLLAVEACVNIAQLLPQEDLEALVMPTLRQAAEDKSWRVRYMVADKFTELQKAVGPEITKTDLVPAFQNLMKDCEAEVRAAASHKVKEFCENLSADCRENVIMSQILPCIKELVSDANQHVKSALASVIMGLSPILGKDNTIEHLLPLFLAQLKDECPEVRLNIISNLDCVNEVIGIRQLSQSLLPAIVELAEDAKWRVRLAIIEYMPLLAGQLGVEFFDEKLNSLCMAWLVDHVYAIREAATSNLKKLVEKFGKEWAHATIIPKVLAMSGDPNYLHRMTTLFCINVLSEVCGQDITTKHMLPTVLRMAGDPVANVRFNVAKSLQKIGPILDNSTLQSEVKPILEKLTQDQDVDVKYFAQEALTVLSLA
As to the kind of experiment: PP2A immunoprecipitation Ser/Thr phosphatase activity assay in treated H524 cells. The experiment is classed as cell-based. Conditions: cantharidin 10 μM, 24 h. As to the method:
FIGS. 1A-IL depict the effects of LB-100 on PP2A-A expression in SCLC tumors and cells. […] A Mann-Whitney U test was used for comparison between the normal and SCLC samples. FIG. 1B: IHC for PP2A was conducted on TMA tissue sections and images were captured at 4× or 20× using a 3D-Histech PANNORAMIC SCAN whole slide scanner (3D-Histech, Budapest, Hungary). […] TMAs were scored in normal (n=24) and tumor (n=79) cores on a scale from 0 (no staining/no protein expression) to 3+(strong staining/high protein expression). FIG. 1C: Summary bar graph of the average PP2A subunit staining. IHC staining intensity of normal and tumor cores. There was a statistically significant difference between normal and tumor tissue (p<0.001). FIG. 1D: In order to compare the expression of PP2A subunits A and C, cell lysates from seven SCLC cell lines and HBEC 3KT (non-malignant cell line) were subjected to western blotting. FIG. 1E: PP2A activity was determined using a serine/threonine phosphatase activity assay (Millipore) after 24 h exposure to cantharidin (10 μM) and LB-100 (5 μM). […] LB-100 alone or in combination with carboplatin inhibited proliferation and colony formation in SCLC cells. The Cell Counting Kit-8 assay detected cell H524 and H69 cell viability. […] FIGS. 1I-1K: Graphs depict the mean+SEM of percent viability for cells (n=3). […]

In another experiment the test system is H446 cells. As to the kind of experiment: Cell Counting Kit-8 cytotoxicity, H446. Conditions: Homo sapiens, NCI-H446, 72 h, read-out: Cytotoxicity IC50, H446.
A further experiment concerns H526 cells. As to the kind of experiment: Cell Counting Kit-8 cytotoxicity, H526. Conditions: Homo sapiens, NCI-H526, 72 h, read-out: Cytotoxicity IC50, H526. On the technique in general: Tetrazolium dyes change colour on reduction, which living cells bring about.
A further experiment deals with H146 cells. As to the kind of experiment: Cell Counting Kit-8 cytotoxicity, H146. Conditions: Homo sapiens, NCI-H146, 72 h, read-out: Cytotoxicity IC50, H146.
A further experiment has as its system H524 and H69 cells. As to the kind of experiment: Colony formation assay. It counts as cell-based. Conditions: both cell lines; H524/H69: LB-100 2.5/20 μM, carboplatin 4/20 μM, etoposide 3/30 μM. As to the method:
(§1) A Mann-Whitney U test was used for comparison between the normal and SCLC samples. FIG. 1B: IHC for PP2A was conducted on TMA tissue sections and images were captured at 4× or 20× using a 3D-Histech PANNORAMIC SCAN whole slide scanner (3D-Histech, Budapest, Hungary). […] TMAs were scored in normal (n=24) and tumor (n=79) cores on a scale from 0 (no staining/no protein expression) to 3+(strong staining/high protein expression). FIG. 1C: Summary bar graph of the average PP2A subunit staining. IHC staining intensity of normal and tumor cores. […] FIG. 1D: In order to compare the expression of PP2A subunits A and C, cell lysates from seven SCLC cell lines and HBEC 3KT (non-malignant cell line) were subjected to western blotting. FIG. 1E: PP2A activity was determined using a serine/threonine phosphatase activity assay (Millipore) after 24 h exposure to cantharidin (10 μM) and LB-100 (5 μM). […] The Cell Counting Kit-8 assay detected cell H524 and H69 cell viability. […] FIGS. 1I-1K: Graphs depict the mean+SEM of percent viability for cells (n=3). Colony formation assays were used to count the ability of H524 (FIGS. 11 and 1J) and H69 (FIGS. 1K and 1L) cells to form colonies. […] Representative images of colonies at 4× are shown under the graph (n=2).*p<0.05; **, p<0.01; *** p<0.001; ****, p<0.0001. Experiments were repeated in triplicate and representative data are shown.

Another experiment deals with H69 cells. As to the kind of experiment: Cell Counting Kit-8 cytotoxicity and drug combination, H69. Conditions: Homo sapiens, NCI-H69, 72 h, read-out: Cytotoxicity IC50, H69; 72 hours. On the procedure:
as §1

The next experiment deals with H82 cells. As to the kind of experiment: Cell Counting Kit-8 cytotoxicity, H82. Conditions: Homo sapiens, NCI-H82, 72 h, read-out: Cytotoxicity IC50, H82.
Another experiment relates to H524 cells. As to the kind of experiment: Cell Counting Kit-8 cytotoxicity and drug combination, H524. Conditions: Homo sapiens, NCI-H524, 72 h, read-out: Cytotoxicity IC50, H524; 72 hours. On the procedure:
as §1

Source text for H146 cells: (§2) To determine specific cytotoxicity, we used Cell Counting Kit-8 (Dojindo Molecular Technologies, Rockville, Md.) as previously described (50).
Source text for H446 cells: as §2
Source text for H526 cells: as §2
Source text for H82 cells: as §2

For the compound “atezolizumab: humanized immunoglobulin (Ig) G1 monoclonal antibody that targets PD-L1 [reference compound]”, the “effect on spheroids (degeneration), drug alone” value in the experiment on H446 spheroids is “no effect”.
Regarding `C[C@@]12C(=O)OC(=O)[C@]1(C)[C@H]1CC[C@@H]2O1` [cantharidin, reference compound], at PP2A, the “PP2A activity reduced by” value is roughly 90%.
In the case of `COc1cc([C@@H]2c3cc4c(cc3[C@@H](O[C@@H]3O[C@@H]5CO[C@@H](C)O[C@H]5[C@H](O)[C@H]3O)[C@H]3COC(=O)[C@H]23)OCO4)cc(OC)c1O` [Etoposide], the IC50 (commonly the concentration that gives 50% inhibition) in the experiment on H446 cells worked out at 3 µM; with H526 cells it was 2.8 µM; with H146 cells it was 31.2 µM; in the experiment with H69 cells it was 30 µM; in the experiment with H82 cells it was 22.6 µM; in the experiment with H524 cells it was 3 µM. Moreover, the colony formation entry in the experiment on H524 and H69 cells is “significantly reduced colony formation”.
